Measurements as given in the supplement of paper PMC11061612.

Experiments:
Test in all cases: Bliss excess, mean over the matrix (fraction); higher = more synergy
[1] = system: TT (Thyroid Gland Carcinoma)
Procedure, shortened: (§1)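 Cell lines in DMEM/F12 or RPMI with 10% FBS were plated in 1536-well plates, held 24 hours at 37°C, 5% CO2, then given two-drug dose matrices for 72 hours (DMSO typically 0.2%). Viability was read by CellTiter-Glo 2.0 luminescence and scaled as inhibition from 0 (vehicle wells) to 1 (blank wells). Combination Emax is the second-highest inhibition in the matrix; Bliss excess is observed combination effect minus expected EA + EB − EA·EB, EA and EB being single-agent effects.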

[2] = system: GI-ME-N (Neuroblastoma)
Procedure, shortened: as §1

[3] = system: PANC-10-05 (Pancreatic Carcinoma)
Procedure, shortened: as §1

[4] = system: NCI-H1666 (Lung Adenocarcinoma)
Procedure, shortened: as §1

[5] = system: A3-KAW (B-Cell Non-Hodgkin's Lymphoma)
Procedure, shortened: as §1

[6] = system: VCaP (Prostate Carcinoma)
Procedure, shortened: as §1

[7] = system: HCC1954 (Breast Carcinoma)
Procedure, shortened: as §1

[8] = system: COR-L311 (Small Cell Lung Carcinoma)
Procedure, shortened: as §1

[9] = system: COLO-824 (Breast Carcinoma)
Procedure, shortened: as §1

[10] = system: A498 (Kidney Carcinoma)
Procedure, shortened: as §1

[11] = system: NCI-H1650 (Lung Adenocarcinoma)
Procedure, shortened: as §1

[12] = system: SK-MES-1 (Squamous Cell Lung Carcinoma)
Procedure, shortened: as §1

[13] = system: CAPAN-2 (Pancreatic Carcinoma)
Procedure, shortened: as §1

[14] = system: NCI-H1581 (Non-Small Cell Lung Carcinoma)
Procedure, shortened: as §1

[15] = system: LN-405 (Glioblastoma)
Procedure, shortened: as §1

[16] = system: NY (Osteosarcoma)
Procedure, shortened: as §1

[17] = system: NCI-H64 (Small Cell Lung Carcinoma)
Procedure, shortened: as §1

[18] = system: ARH-77 (Non-Cancerous)
Procedure, shortened: as §1

[19] = system: JSC-1 (B-Cell Non-Hodgkin's Lymphoma)
Procedure, shortened: as §1

[20] = system: IGR-37 (Melanoma)
Procedure, shortened: as §1

`COc1nnc2ccc(N3CCC(c4ccc(OCCN5CCN(C)C(=O)[C@H]5C)cc4)CC3)nn12` [AZD5153] + Cc1c2c(nn1C)CSCc1cc(n(C)n1)CSc1cc(c3ccccc3c1)OCCCc1c(C(=O)O)n(C)c3c-2c(Cl)ccc13 [AZD5991] (first compound max 1 µM, 7x7, partner max 1 µM) was tested, and the Bliss excess [1] was -0.0291, the Bliss excess [2] was -0.0142 and the Bliss excess [3] was -0.0759. The Bliss excess [4] was -0.0538, the Bliss excess [5] was -0.0289 and the Bliss excess [6] was -0.0242. The Bliss excess [7] was 0.0771, the Bliss excess [8] was -0.0225 and the Bliss excess [9] was -0.0584. It also gave a Bliss excess [10] of -0.0226, a Bliss excess [11] of -0.0082 and a Bliss excess [12] of -0.0084. For the same compound, the Bliss excess [13] was -0.0078, the Bliss excess [14] was -0.0739 and the Bliss excess [15] was -0.0084. The Bliss excess [16] was -0.0656, the Bliss excess [17] was -0.0074 and the Bliss excess [18] was -0.04. The Bliss excess [19] was -0.0542 and the Bliss excess [20] was 0.0608.
`COc1nnc2ccc(N3CCC(c4ccc(OCCN5CCN(C)C(=O)[C@H]5C)cc4)CC3)nn12` [AZD5153] + CC1(C)CCC(CN2CCN(c3ccc(C(=O)NS(=O)(=O)c4ccc(NCC5CCOCC5)c([N+](=O)[O-])c4)c(Oc4cnc5[nH]ccc5c4)c3)CC2)=C(c2ccc(Cl)cc2)C1 [Venetoclax] (first compound max 1 µM, 7x7, partner max 1 µM) gave a Bliss excess [1] of -0.0116, a Bliss excess [2] of -0.0955 and a Bliss excess [3] of -0.119. For the same compound, the Bliss excess [4] was -0.0603, the Bliss excess [5] was -0.0095 and the Bliss excess [6] was -0.0486. The Bliss excess [7] was -0.0391, the Bliss excess [8] was 0.0389 and the Bliss excess [9] was -0.0176. The Bliss excess [10] was -0.0895, the Bliss excess [11] was -0.0349 and the Bliss excess [12] was -0.0349. The Bliss excess [13] was -0.0149, the Bliss excess [14] was -0.115 and the Bliss excess [15] was -0.0861. For the same compound, the Bliss excess [16] was -0.0722, the Bliss excess [17] was -0.0455 and the Bliss excess [18] was -0.0033. The Bliss excess [19] was -0.0724 and the Bliss excess [20] was -0.0171.
Work on `CN(CCO)CC[C@H](CSc1ccccc1)Nc1ccc(S(=O)(=O)NC(=O)c2ccc(N3CCC([C@@H](O)c4ccccc4-c4ccc(Cl)cc4)CC3)cc2)cc1S(=O)(=O)C(F)(F)F` [AZD4320] + C=CCn1c(=O)c2cnc(Nc3ccc(N4CCN(C)CC4)cc3)nc2n1-c1cccc(C(C)(C)O)n1 [AZD1775] (first compound max 1 µM, partner max 1 µM) yielded a Bliss excess [1] of -0.0048, a Bliss excess [2] of -0.0524 and a Bliss excess [3] of -0.0174. For the same compound, the Bliss excess [4] was -0.0717, the Bliss excess [5] was 0.0279 and the Bliss excess [6] was 0.0072. It also gave a Bliss excess [7] of 0.0823, a Bliss excess [8] of -0.0091 and a Bliss excess [9] of 0.0803. It also gave a Bliss excess [10] of 0.0368, a Bliss excess [11] of -0.0096 and a Bliss excess [12] of 0.0356. It also gave a Bliss excess [13] of 0.0665, a Bliss excess [14] of 0.059 and a Bliss excess [15] of 0.0173. The Bliss excess [16] was 0.0694, the Bliss excess [17] was 0.0886 and the Bliss excess [18] was -0.0449. It also gave a Bliss excess [19] of -0.0077 and a Bliss excess [20] of 0.0354.
`NC1(C(=O)N[C@@H](CCO)c2ccc(Cl)cc2)CCN(c2ncnc3[nH]ccc23)CC1` [Capivasertib] + COc1nnc2ccc(N3CCC(c4ccc(OCCN5CCN(C)C(=O)[C@H]5C)cc4)CC3)nn12 [AZD5153] (first compound max 10 µM, 7x7, partner max 1 µM) was tested, and the Bliss excess [1] was 0.0241, the Bliss excess [2] was -0.0309 and the Bliss excess [3] was -0.0114. It also gave a Bliss excess [4] of -0.0136, a Bliss excess [5] of -0.0363 and a Bliss excess [6] of 0.0181. The Bliss excess [7] was 0.0641, the Bliss excess [8] was -0.0089 and the Bliss excess [9] was 0.0218. The Bliss excess [10] was 0.0826, the Bliss excess [11] was 0.0322 and the Bliss excess [12] was 0.046. For the same compound, the Bliss excess [13] was -0.0143, the Bliss excess [14] was -0.0303 and the Bliss excess [15] was -0.013. For the same compound, the Bliss excess [16] was -0.0649, the Bliss excess [17] was -0.0011 and the Bliss excess [18] was -0.0253. It also gave a Bliss excess [19] of -0.0312 and a Bliss excess [20] of 0.0011.
`COc1nnc2ccc(N3CCC(c4ccc(OCCN5CCN(C)C(=O)[C@H]5C)cc4)CC3)nn12` [AZD5153] + Cn1cnc2c(F)c(Nc3ccc(Br)cc3Cl)c(C(=O)NOCCO)cc21 [Selumetinib] (first compound max 1 µM, 7x7, partner max 10 µM) gave a Bliss excess [1] of -0.0018, a Bliss excess [2] of -0.0636 and a Bliss excess [3] of -0.0736. For the same compound, the Bliss excess [4] was -0.0631, the Bliss excess [5] was 0.0182 and the Bliss excess [6] was -0.059. For the same compound, the Bliss excess [7] was -0.0118, the Bliss excess [8] was -0.0334 and the Bliss excess [9] was 0.007. For the same compound, the Bliss excess [10] was 0.0016, the Bliss excess [11] was -0.0155 and the Bliss excess [12] was -0.0219. It also gave a Bliss excess [13] of 0.0202, a Bliss excess [14] of -0.0141 and a Bliss excess [15] of -0.0171. It also gave a Bliss excess [16] of -0.005, a Bliss excess [17] of 0.0021 and a Bliss excess [18] of -0.0251. For the same compound, the Bliss excess [19] was -0.0165 and the Bliss excess [20] was 0.0624.
`Cc1c2c(nn1C)CSCc1cc(n(C)n1)CSc1cc(c3ccccc3c1)OCCCc1c(C(=O)O)n(C)c3c-2c(Cl)ccc13` [AZD5991] + CCN(CCO)CCCOc1ccc2c(Nc3cc(CC(=O)Nc4cccc(F)c4)[nH]n3)ncnc2c1 [AZD2811] (first compound max 1 µM, 7x7, partner max 1 µM) showed a Bliss excess [1] of -0.0735, a Bliss excess [2] of 0.0116 and a Bliss excess [3] of -0.0242. For the same compound, the Bliss excess [4] was -0.0133, the Bliss excess [5] was 0.0434 and the Bliss excess [6] was 0.08. It also gave a Bliss excess [7] of 0.105, a Bliss excess [8] of -0.0057 and a Bliss excess [9] of -0.0156. For the same compound, the Bliss excess [10] was 0.0054, the Bliss excess [11] was 0.0357 and the Bliss excess [12] was 0.0098. It also gave a Bliss excess [13] of -0.0133, a Bliss excess [14] of 0.108 and a Bliss excess [15] of 0.0122. The Bliss excess [16] was 0.0542, the Bliss excess [17] was 0.144 and the Bliss excess [18] was -0.0146. It also gave a Bliss excess [19] of 0.123 and a Bliss excess [20] of 0.0533.
`C[C@@H]1COCCN1c1cc(C2([S@](C)(=N)=O)CC2)nc(-c2ccnc3[nH]ccc23)n1` [AZD6738] + O=C(c1cc(Cc2n[nH]c(=O)c3ccccc23)ccc1F)N1CCN(C(=O)C2CC2)CC1 [Olaparib] (first compound max 10 µM, 7x7, partner max 10 µM) gave a Bliss excess [1] of -0.0219, a Bliss excess [2] of -0.0252 and a Bliss excess [3] of -0.0133. The Bliss excess [4] was 0.0073, the Bliss excess [5] was -0.0085 and the Bliss excess [6] was -0.0107. For the same compound, the Bliss excess [7] was 0.0028, the Bliss excess [8] was -0.0507 and the Bliss excess [9] was -0.0314. The Bliss excess [10] was -0.0403, the Bliss excess [11] was -0.0152 and the Bliss excess [12] was -0.0324. It also gave a Bliss excess [13] of -0.0255, a Bliss excess [14] of 0.0166 and a Bliss excess [15] of 0.0005. The Bliss excess [16] was -0.0521, the Bliss excess [17] was -0.0686 and the Bliss excess [18] was -0.0297. It also gave a Bliss excess [19] of -0.0254 and a Bliss excess [20] of -0.0475.
